Data taken from patent publication US7772241B2, “Variolin derivatives and their use as antitumor agents” (Pharma Mar S.A., priority 2001, dated 2010).
Like-named read-outs stand apart in the source and are kept apart here. Values belong to the compound of their own block, whether it stands above or below them.

How the values were obtained:
[1] = tested on: IGROV-1; assay: Inhibition of cells growth by colorimetric (SRB) assay, IGROV-1; conditions: SRB assay, 48 hours exposure
In short: (§1)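 Human tumour cells in RPMI 1640 with 10% FBS were seeded at 5×10^3 cells/well, allowed to attach for 18 h, then exposed to samples at 10 to 10^−8 μg/ml for 48 h. Growth was measured by SRB staining after TCA fixation, with absorbance read at 490 nm in triplicate wells.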

[2] = tested on: A-549; assay: Inhibition of cells growth by colorimetric (SRB) assay, A-549; conditions: for GI50: read-out: GI50 A-549
In short: as §1

[3] = tested on: LoVo-Dox; assay: Inhibition of cells growth by colorimetric (SRB) assay, LoVo-Dox
In short: as §1

[4] = tested on: SK-BR-3; assay: Inhibition of cells growth by colorimetric (SRB) assay, SK-BR-3
From the text: (§2) The finality of these assays is to interrupt the growth of a “in vitro” tumor cell culture by means a continued exhibition of the cells to the sample to be testing.
(§3) This form of the assay employs 96 well cell culture microplates of 9 mm diameter (Faircloth, 1988; Mosmann, 1983). Most of the cell lines are obtained from American Type Culture Collection (ATCC) derived from different human cancer types.
(§4) Cells are maintained in RPMI 1640 10% FBS, supplemented with 0.1 g/l penicillin and 0.1 g/l streptomycin sulphate and then incubated at 37° C., 5% CO2 and 98% humidity. For the experiments, cells were harvested from subconfluent cultures using trypsin and resuspended in fresh medium before plating.
(§5) Cells are seeded in 96 well microtiter plates, at 5×10^3 cells per well in aliquots of 195 μl medium, and they are allowed to attach to the plate surface by growing in drug free medium for 18 hours. Afterward, samples are added in aliquots of 5 μl in a ranging from 10 to 10^−8 μg/ml, dissolved in DMSO/EtOH/PBS (0.5:0.5:99). After 48 hours exposure, the antitumor effect are measured by the SRB methodology: cells are fixed by adding 50 μl of cold 50% (wt/vol) trichloroacetic acid (TCA) and incubating for 60 minutes at 4° C. Plates are washed with deionized water and dried. One hundred μl of SRB solution (0.4% wt/vol in 1% acetic acid) is added to each microtiter well and incubated for 10 minutes at room temperature. Unbound SRB is removed by washing with 1% acetic acid. Plates are air dried and bound stain is solubilized with Tris buffer. Optical densities are read on a automated spectrophotometric plate reader at a single wavelength of 490 nm.
(§6) The values for mean +/−SD of data from triplicate wells are calculated. Some parameters for cellular responses can be calculated: GI=growth inhibition, TGI=total growth inhibition (cytostatic effect) and LC=cell killing (cytotoxic effect).

[5] = tested on: LNCaP; assay: Inhibition of cells growth by colorimetric (SRB) assay, LNCaP; conditions: SRB assay, 48 hours exposure
In short: as §1

[6] = tested on: PANC-1; assay: Inhibition of cells growth by colorimetric (SRB) assay, PANC-1
In short: as §1

[7] = tested on: DU-145; assay: Inhibition of cells growth by colorimetric (SRB) assay, DU-145
In short: as §1

[8] = tested on: SK-MEL-28; assay: Inhibition of cells growth by colorimetric (SRB) assay, SK-MEL-28
In short: as §1

[9] = tested on: SK-OV-3; assay: Inhibition of cells growth by colorimetric (SRB) assay, SK-OV-3
In short: as §1

[10] = tested on: K-562; assay: Inhibition of cells growth by colorimetric (SRB) assay, K-562
In short: as §1

[11] = tested on: IGROV-ET; assay: Inhibition of cells growth by colorimetric (SRB) assay, IGROV-ET
In short: as §1

[12] = tested on: HT-29; assay: Inhibition of cells growth by colorimetric (SRB) assay, HT-29
In short: as §1

[13] = tested on: LoVo; assay: Inhibition of cells growth by colorimetric (SRB) assay, LoVo
In short: as §1

[14] = tested on: HMEC1; assay: Inhibition of cells growth by colorimetric (SRB) assay, HMEC1; conditions: SRB assay, 48 hours exposure
From the text: as §2, §3, §4, §5, §6

SMILES: Nc1nccc2c(-c3ccncn3)c3c(O)ccnc3n12 [Compound 100]
- TGI IGROV [1]: 4.69E−06
- GI50 ([1]; read-out: GI50 IGROV): 1.4 µM
- CC50 ([1]; read-out: LC50 IGROV): 13.2 µM
- CC50 ([2]; Homo sapiens, A549, 48 h, read-out: LC50 A-549, SRB assay, 48 hours exposure): ≥ 25.5 µM
- TGI A-549 ([2]; SRB assay, 48 hours exposure): 2.63E−06
- GI50 ([2]; SRB assay, 48 hours exposure): 0.678 µM
- GI50 ([3]; Homo sapiens, 48 h, read-out: GI50 LOVO-DOX, SRB assay, 48 hours exposure): 1.18 µM
- CC50 ([3]; Homo sapiens, 48 h, read-out: LC50 LOVO-DOX, SRB assay, 48 hours exposure): ≥ 25.5 µM
- TGI LOVO-DOX ([3]; SRB assay, 48 hours exposure): 1.30E−05
- CC50 ([4]; Homo sapiens, SK-BR-3, 48 h, read-out: LC50 SK-BR-3, SRB assay, 48 hours exposure): 10.6 µM
- TGI SK-BR-3 ([4]; SRB assay, 48 hours exposure): 1.52E−06
- GI50 ([4]; read-out: GI50 SK-BR-3, SRB assay, 48 hours exposure): 0.464 µM
- TGI LN-caP [5]: 3.29E−06
- GI50 ([5]; read-out: GI50 LN-caP): 1.05 µM
- CC50 ([5]; read-out: LC50 LN-caP): 10.9 µM
- CC50 ([6]; Homo sapiens, PANC-1, 48 h, read-out: LC50 PANC-1, SRB assay, 48 hours exposure): ≥ 25.5 µM
- TGI PANC-1 ([6]; SRB assay, 48 hours exposure): 2.55E−05
- GI50 ([6]; read-out: GI50 PANC-1, SRB assay, 48 hours exposure): 4.92 µM
- CC50 ([7]; Homo sapiens, DU-145, 48 h, read-out: LC50 DU-145, SRB assay, 48 hours exposure): ≥ 25.5 µM
- TGI DU-145 ([7]; SRB assay, 48 hours exposure): 5.25E−06
- GI50 ([7]; read-out: GI50 DU-145, SRB assay, 48 hours exposure): 0.739 µM
- CC50 ([8]; Homo sapiens, SK-MEL-28, 48 h, read-out: LC50 MEL-28, SRB assay, 48 hours exposure): ≥ 25.5 µM
- TGI MEL-28 ([8]; SRB assay, 48 hours exposure): 8.08E−06
- GI50 ([8]; read-out: GI50 MEL-28, SRB assay, 48 hours exposure): 1.32 µM
- CC50 ([9]; Homo sapiens, SK-OV-3, 48 h, read-out: LC50 SKOV-3, SRB assay, 48 hours exposure): ≥ 25.5 µM
- TGI SKOV-3 ([9]; SRB assay, 48 hours exposure): 9.84E−06
- GI50 ([9]; read-out: GI50 SKOV-3, SRB assay, 48 hours exposure): 1.74 µM
- GI50 ([10]; Homo sapiens, K562, 48 h, read-out: GI50 K-562, SRB assay, 48 hours exposure): 6.78 µM
- CC50 ([10]; Homo sapiens, K562, 48 h, read-out: LC50 K-562, SRB assay, 48 hours exposure): ≥ 25.5 µM
- TGI K-562 ([10]; SRB assay, 48 hours exposure): 1.49E−05
- CC50 ([11]; Homo sapiens, 48 h, read-out: LC50 IGROV-ET, SRB assay, 48 hours exposure): 22.9 µM
- TGI IGROV-ET ([11]; SRB assay, 48 hours exposure): 2.33E−06
- GI50 ([11]; read-out: GI50 IGROV-ET, SRB assay, 48 hours exposure): 0.683 µM
- GI50 ([12]; Homo sapiens, HT-29, 48 h, read-out: GI50 HT-29, SRB assay, 48 hours exposure): 14.9 µM
- CC50 ([12]; Homo sapiens, HT-29, 48 h, read-out: LC50 HT-29, SRB assay, 48 hours exposure): ≥ 25.5 µM
- TGI HT-29 ([12]; SRB assay, 48 hours exposure): 2.55E−05
- CC50 ([13]; Homo sapiens, LoVo, 48 h, read-out: LC50 LOVO, SRB assay, 48 hours exposure): ≥ 25.5 µM
- TGI LOVO ([13]; SRB assay, 48 hours exposure): 5.12E−06
- GI50 ([13]; read-out: GI50 LOVO, SRB assay, 48 hours exposure): 0.877 µM

- GI50 ([2]; SRB assay, 48 hours exposure): 34.4 µM
- GI50 ([12]; read-out: HT-29 GI50, SRB assay, 48 hours exposure): 34.4 µM
SMILES: COc1cccc(-c2c3cccnc3n3c(N)nccc23)c1 [Compound 62]
- A-549 TGI ([2]; SRB assay, 48 hours exposure): 3.44E−05
- CC50 ([2]; read-out: A-549 LC50, SRB assay, 48 hours exposure): 34.4 µM
- TGI H-MEC-1 ([14]; in M (unit assumed)): 3.44E−05
- GI50 ([14]; read-out: GI50 H-MEC-1): 34.4 µM
- CC50 ([14]; read-out: LC50 H-MEC-1): 34.4 µM
- HT-29 TGI ([12]; SRB assay, 48 hours exposure): 3.44E−05
- CC50 ([12]; read-out: HT-29 LC50, SRB assay, 48 hours exposure): 34.4 µM
